Results from patent US8476454B2, “IDO inhibitors and methods of use” (Lankenau Institute for Medical Research, priority 2003, dated 2013).
Blank lines part the entries; values can stand above or below the molecule they belong to.

Columns and labels:
[1] = system: tumor growth in a mouse model; details: Friberg et al. 2002; U.S. Pat. No. 6,482,416; cited from earlier work
allogenic conceptus = test: allogeneic conceptus rejection in mice; format: in vivo, mouse; details: 20 mg/day from two time-release pellets; unpublished results
Procedure: (§1) The time-release pellets are composed of a copolymer which is inert and gradually dissolves and breaks down to a non-toxic substance that remains largely localized during the course of the experiment. […] Two pellets per mouse were implanted to deliver a total dose of 20 mg/day. Therefore, for a 25 g mouse the total dose is 800 mg/kg/day or 280 mg over a 14 day period. Steady-state levels were reached within 12-24 hours and are maintained throughout the entire period based on the manufacturer's specifications.

[2] = HPLC analysis of mouse serum for compound level; format: in vivo; details: 2×140 mg 1MT pellets implanted subcutaneously, 3 days, male FVB mice
Source text: Protein was removed by TCA precipitation.

[3] = time-release pellets, manufacturer's specifications; cited from earlier work
IDO = details: cited from earlier work; for potency ranking as IDO inhibitor (literature): Peterson et al. 1993, 1994
[4] = system: established tumors in MMTVneu "oncomouse" model; test: MMTVneu transgenic oncomouse model of breast cancer, change in tumor volume over two weeks; format: in vivo, mouse; details: for effect on tumor growth: two week course, 1MT 20 mg/day s.c. time-release pellets, cytotoxics i.v. at maximum-tolerated doses
Source text: The MMTVneu transgenic “oncomouse” model of breast cancer was used to measure the effects of IDO inhibitors and STIs on tumor pathophysiology. The MMTVneu transgenic mouse develops aggressive tumors of the mammary gland that resemble poorly differentiated human ductal carcinomas. In the MMTVneu mouse model, breast cancer is initiated by tissue-specific expression of a mutant form of the HER-2/Neu gene that is activated frequently in aggressive human breast ductal carcinomas. HER-2 is a member of the EGF-R family of cell surface growth factor receptors. Myc is an obligate downstream effector for HER-2/Neu to drive cancer. Female MMTVneu “oncomice” are mated twice to initiate expression from the mouse mammary tumor virus (wry) promoter which drives transcription of the Neu/HER2 oncogene in mammary tissue. Mammary tumors arise with a penetrance of >90% in this model system by 5 months of age. MMTVneu “oncomice” bearing similarly sized tumors of ˜150 mm^3 were randomly assigned to control or experimental treatment groups. Control mice were implanted with placebo time-release pellets (Innovative Research, Inc., Sarasota, Fla.).
as §1, with “period.” for “period. Steady-state levels were reached within 12-24 hours and are maintained throughout the entire period based on the manufacturer's specifications.”
Time-release pellets were introduced subcutaneously on the backs of mice anesthetized by intramuscular injection of ketamin/rompun. Blunt dissection with a hemostat is used to separate the skin from the underlying muscle to create a subcutaneous pocket. One or two biodegradable slow release pellets were implanted within this pocket, rather than directly under the incision in order to prevent mechanical stress and wound dehiscence. The incision was then closed with wound clips.
MMTVneu “oncomice” bearing similarly sized tumors of ˜150 mm^3 were randomly assigned to control or experimental treatment groups. Control mice were implanted with placebo time-release pellets (Innovative Research, Inc., Sarasota, Fla.).
The cytotoxic chemotherapeutic agents were prepared and delivered to the mice as follows. Paclitaxel was dissolved in equal volumes of absolute ethanol and the clinically-used solubilizing agent Cremophor® EL. The solution was sonicated up to 30 minutes and stored as a 20 mg/ml stock solution at 4° C. for up to one week. Before use, this solution was diluted further at 1:5 with sterile physiological saline. Paclitaxel formulated in this manner was administered to mice by a single bolus intravenous (i.v.) injection into the tail vein. Mouse tails can be warmed to facilitate identification and injection of the vein. […] The MTD of cisplatin (1 mg/kg) was obtained as a clinical preparation in saline and delivered as a bolus i.v. injection on the same schedule. Control treated mice received only the Cremophor° EL vehicle formulation without paclitaxel.
Statistical analysis of the tumors of MMTVneu mice after various treatments. Numbers are provided as percent change in tumor volume as compared to the tumor volume prior to treatment.

[5] = target: T1, tryptophan 2,3-dioxygenase (TDO2) (Homo sapiens, UniProt P48775); test: cell-based screen, 293/Phoenix cells transiently transfected with TDO (selectivity); details: IDO versus TDO2
T1 construct: expressed in transfected cells; host or cells: human 293/Phoenix cells
Procedure: FIGS. 27A-27C provide a chart of certain IDO inhibitors, their structures, and their ability to inhibit IDO and TDO activity at a concentration of 250 μM in a cell-based assay.
The candidate compounds were also screened in a cell-based assay (for similar assay see Munn et al. (1999) J. Exp. Med. 189:1363-1372). Briefly, human 293/Phoenix cells were transiently transfected with human IDO or TDO cDNA expression vectors. The candidate compounds were added to the transfected cells at various concentrations. Kynurenine was quantitated in tissue culture media using a fluorescence-based protocol.

intracellular IDO = target: T2, intracellular IDO (Homo sapiens, UniProt P14902); test: cell-based IDO inhibitor assay, COS-1 cells transiently transfected with IDO cDNA, dose escalation
T2 construct: expressed in transfected cells; host or cells: COS-1 cells, CMV promoter-driven plasmid, Lipofectamine 2000

human IDO [6] = target: T3, human IDO (Homo sapiens, UniProt P14902); test: IDO enzyme assay (kynurenine production), enzyme kinetics for Ki; format: biochemical
human IDO [7] = target: T3, human IDO; test: cell-based screen, 293/Phoenix cells transiently transfected with human IDO, kynurenine in media
[8] = compared to the tumor volume prior to treatment, two weeks

T1 sequence (P48775 whole entry): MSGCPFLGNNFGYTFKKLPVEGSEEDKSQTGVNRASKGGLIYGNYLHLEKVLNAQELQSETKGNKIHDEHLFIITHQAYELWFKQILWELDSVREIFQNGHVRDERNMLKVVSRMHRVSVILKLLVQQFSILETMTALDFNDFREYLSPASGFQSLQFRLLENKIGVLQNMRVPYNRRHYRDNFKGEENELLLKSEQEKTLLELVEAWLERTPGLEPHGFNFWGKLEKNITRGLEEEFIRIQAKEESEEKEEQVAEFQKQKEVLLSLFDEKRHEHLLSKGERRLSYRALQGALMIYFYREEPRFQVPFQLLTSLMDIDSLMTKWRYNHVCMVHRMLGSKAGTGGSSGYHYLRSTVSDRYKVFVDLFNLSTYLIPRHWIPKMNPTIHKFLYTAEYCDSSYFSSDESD
T3 sequence (P14902 whole entry): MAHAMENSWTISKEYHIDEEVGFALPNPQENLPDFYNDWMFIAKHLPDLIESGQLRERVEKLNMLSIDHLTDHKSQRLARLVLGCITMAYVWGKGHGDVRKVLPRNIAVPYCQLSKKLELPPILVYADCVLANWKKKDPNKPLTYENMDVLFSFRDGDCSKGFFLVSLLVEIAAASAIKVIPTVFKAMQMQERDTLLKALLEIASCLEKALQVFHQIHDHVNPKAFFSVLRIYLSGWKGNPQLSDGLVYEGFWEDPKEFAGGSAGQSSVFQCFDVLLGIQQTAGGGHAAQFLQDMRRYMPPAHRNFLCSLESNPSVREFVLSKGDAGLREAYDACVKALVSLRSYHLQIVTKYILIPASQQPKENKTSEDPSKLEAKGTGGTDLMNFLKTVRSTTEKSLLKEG
T2 sequence (P14902 whole entry): as above

1MT level in serum [2]: ~100 µM
SMILES: Cn1cc(CC(N)C(=O)O)c2ccccc21 (racemic) [1MT, 1-methyl-DL-tryptophan]
effect on tumor growth (literature) [1]: only retarded and did not prevent tumor growth
allogenic conceptus rejection (allogenic conceptus): effective at eliciting allogenic conceptus rejection
time to steady-state levels [3]: 12 to 24 h

SMILES: Nc1cc2ccccc2cc1C(=O)O [3-amino-2-naphthoic acid]
potency ranking as IDO inhibitor (literature) (IDO): most potent IDO inhibitor

SMILES: CCCCc1cc2c(cn1)[nH]c1ccccc12 [3-butyl-β-carboline]
potency ranking as IDO inhibitor (literature) (IDO): most active derivative

SMILES: CC[C@H](C)[C@@H](CO[C@@H](Cc1ccccc1)C(=O)N[C@@H](CCS(C)(=O)=O)C(=O)OC(C)C)NC[C@@H](N)CS [L-744,832]
effect on tumor growth [4]: retarded but did not block tumor growth

SMILES: CN1C(=O)C(Cc2c[nH]c3ccccc23)NC1=S (centres unmarked) [MTH-Trp, 3-(N-methyl-thiohydantoin)-indole]
selectivity over tryptophan 2,3-dioxygenase (TDO2) [5]: significant selectivity
EC50 (intracellular IDO; COS-1 cells expressing IDO, 5 hours, 20 μg/ml tryptophan): 12.9 µM
potency against intracellular IDO relative to 1MT (intracellular IDO; compared with 1MT): ~20 fold
potency of direct IDO enzyme inhibition relative to 1MT (human IDO [6]; compared with 1MT): about 3 fold
Ki (human IDO [6]; human IDO, global nonlinear regression of enzyme kinetic data, read-out: Best fit values of Ki): 11.4 µM
inhibition of IDO activity relative to 1MT (human IDO [7]; at a concentration of 250 μM, compared with 1MT): 2.7 times
potency ranking among screened compounds (human IDO [7]; cell-based screen): most potent of these inhibitors

SMILES: C=CCN1C(=O)C(Cc2c[nH]c3ccccc23)NC1=S (centres unmarked) [N-allyl, 3-(N-allyl-thiohydantoin)-indole]
selectivity over tryptophan 2,3-dioxygenase (TDO2) [5]: significant selectivity

SMILES: O=C1C(Cc2c[nH]c3ccccc23)NC(=S)N1c1ccccc1 (centres unmarked) [N-phenyl, 3-(N-phenyl-thiohydantoin)-indole]
selectivity over tryptophan 2,3-dioxygenase (TDO2) [5]: significant selectivity

SMILES: c1ccc2c(c1)[nH]c1sncc12 [brassilexin]
mode of IDO inhibition (literature) (IDO; Peterson et al. 1993): noncompetitive inhibitor of IDO

SMILES: N.N.[Cl][Pt][Cl] [cisplatin]
Maximum percent change in tumor volume [4, 8]: 255.6%
Mean percent change in tumor volume [4, 8]: 91.35%
Median percent change in tumor volume [4, 8]: 40%
Minimum percent change in tumor volume [4, 8]: −26.53%
effect on tumor growth [4]: retarded but did not block tumor growth

SMILES: CC(=O)O[C@H]1C(=O)[C@@]2(C)[C@H]([C@H](OC(=O)c3ccccc3)[C@]3(O)C[C@H](OC(=O)[C@H](O)[C@@H](NC(=O)c4ccccc4)c4ccccc4)C(C)=C1C3(C)C)[C@]1(OC(C)=O)CO[C@@H]1C[C@@H]2O [paclitaxel]
25% Percentile percent change in tumor volume [4, 8]: 40.25%
75% Percentile percent change in tumor volume [4, 8]: 247.6%
Maximum percent change in tumor volume [4, 8]: 360.8%
Mean percent change in tumor volume [4, 8]: 139.4%
Median percent change in tumor volume [4, 8]: 130.4%
Minimum percent change in tumor volume [4, 8]: 20%
effect on tumor growth [4]: retarded but did not block tumor growth
